Reference: ChEMBL document CHEMBL3431459, “Roche carnitine palmitoyltransferase modulator screening data (supplementary data associated with the publication CHEMBL2216752)”

How the values were obtained:
[1] = biological target: T1, Carnitine O-palmitoyltransferase 1, muscle isoform (Homo sapiens, UniProt Q92523); test: SUPPLEMENTARY: Inhibition of Carnitine palmitoyltransferase 1, muscle isoform; design: species or system Muscle tissue
T1 sequence (Q92523 whole entry): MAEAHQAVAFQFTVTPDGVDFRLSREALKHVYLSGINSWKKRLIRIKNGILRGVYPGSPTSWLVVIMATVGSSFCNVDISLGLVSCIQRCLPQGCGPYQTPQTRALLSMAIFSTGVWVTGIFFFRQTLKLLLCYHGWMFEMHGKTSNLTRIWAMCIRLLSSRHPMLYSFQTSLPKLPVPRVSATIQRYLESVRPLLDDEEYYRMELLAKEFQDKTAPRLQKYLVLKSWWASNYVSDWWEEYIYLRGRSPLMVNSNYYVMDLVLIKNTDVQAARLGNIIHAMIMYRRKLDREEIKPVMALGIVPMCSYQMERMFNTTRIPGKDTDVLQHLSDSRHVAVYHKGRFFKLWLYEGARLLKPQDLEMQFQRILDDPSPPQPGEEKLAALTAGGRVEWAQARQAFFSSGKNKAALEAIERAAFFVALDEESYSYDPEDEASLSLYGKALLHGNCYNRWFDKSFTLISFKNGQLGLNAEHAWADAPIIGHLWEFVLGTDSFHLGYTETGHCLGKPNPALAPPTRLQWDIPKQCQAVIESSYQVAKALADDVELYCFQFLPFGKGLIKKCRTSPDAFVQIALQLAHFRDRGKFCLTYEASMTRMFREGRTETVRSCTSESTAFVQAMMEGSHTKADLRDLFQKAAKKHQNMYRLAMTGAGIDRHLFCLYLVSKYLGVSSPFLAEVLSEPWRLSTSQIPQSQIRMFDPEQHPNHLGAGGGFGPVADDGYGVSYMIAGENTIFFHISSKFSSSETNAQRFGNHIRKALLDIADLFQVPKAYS

[2] = biological target: T2, Carnitine O-palmitoyltransferase 2, mitochondrial (Homo sapiens, UniProt P23786); test: (§1) SUPPLEMENTARY: Inhibition of Carnitine palmitoyltransferase 2
T2 sequence (P23786 whole entry): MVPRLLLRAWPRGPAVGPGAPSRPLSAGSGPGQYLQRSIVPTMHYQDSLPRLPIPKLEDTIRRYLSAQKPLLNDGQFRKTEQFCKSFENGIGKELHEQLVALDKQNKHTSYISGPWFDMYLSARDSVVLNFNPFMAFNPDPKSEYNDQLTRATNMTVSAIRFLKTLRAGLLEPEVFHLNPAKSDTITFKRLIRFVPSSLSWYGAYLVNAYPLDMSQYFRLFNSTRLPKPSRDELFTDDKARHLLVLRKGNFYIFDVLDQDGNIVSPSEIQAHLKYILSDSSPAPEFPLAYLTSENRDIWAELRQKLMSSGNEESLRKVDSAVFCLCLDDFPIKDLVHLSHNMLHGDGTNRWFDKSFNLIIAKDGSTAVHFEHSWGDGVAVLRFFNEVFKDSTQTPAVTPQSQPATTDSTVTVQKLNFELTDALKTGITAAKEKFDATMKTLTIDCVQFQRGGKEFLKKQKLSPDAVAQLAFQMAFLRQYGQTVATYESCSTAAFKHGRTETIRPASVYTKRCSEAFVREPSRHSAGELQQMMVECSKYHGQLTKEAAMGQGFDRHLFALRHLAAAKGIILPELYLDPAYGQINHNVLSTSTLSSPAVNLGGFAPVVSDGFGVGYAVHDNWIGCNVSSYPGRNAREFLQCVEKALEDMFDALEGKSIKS

[3] = biological target: T3, Carnitine O-palmitoyltransferase 1, liver isoform (Homo sapiens, UniProt P50416); test: (§2) SUPPLEMENTARY: Inhibition of Carnitine palmitoyltransferase 1, liver isoform
T3 sequence (P50416 whole entry): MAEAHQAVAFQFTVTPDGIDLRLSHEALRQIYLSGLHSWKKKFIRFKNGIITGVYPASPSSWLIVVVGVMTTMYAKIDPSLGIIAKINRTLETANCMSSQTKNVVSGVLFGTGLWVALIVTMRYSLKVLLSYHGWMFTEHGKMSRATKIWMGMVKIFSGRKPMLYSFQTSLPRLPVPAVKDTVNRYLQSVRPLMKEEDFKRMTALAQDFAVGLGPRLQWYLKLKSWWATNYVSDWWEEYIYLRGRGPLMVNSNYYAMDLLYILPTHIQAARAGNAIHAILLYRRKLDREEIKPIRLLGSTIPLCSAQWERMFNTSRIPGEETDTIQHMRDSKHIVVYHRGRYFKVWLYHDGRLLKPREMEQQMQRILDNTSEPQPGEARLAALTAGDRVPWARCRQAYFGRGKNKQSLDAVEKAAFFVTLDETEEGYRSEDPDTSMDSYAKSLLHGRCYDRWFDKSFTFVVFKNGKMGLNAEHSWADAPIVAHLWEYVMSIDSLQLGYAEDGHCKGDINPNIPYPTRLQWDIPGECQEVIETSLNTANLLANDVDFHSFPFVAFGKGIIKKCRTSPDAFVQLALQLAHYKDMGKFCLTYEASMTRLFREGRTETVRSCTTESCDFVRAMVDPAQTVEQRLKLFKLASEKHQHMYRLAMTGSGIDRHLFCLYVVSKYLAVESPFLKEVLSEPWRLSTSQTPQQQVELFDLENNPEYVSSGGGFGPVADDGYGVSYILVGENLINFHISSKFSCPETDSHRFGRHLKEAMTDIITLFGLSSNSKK

[4] = biological target: T4, Carnitine O-palmitoyltransferase 1, liver isoform (Rattus norvegicus, UniProt P32198); test: as §2
T4 sequence (P32198 whole entry): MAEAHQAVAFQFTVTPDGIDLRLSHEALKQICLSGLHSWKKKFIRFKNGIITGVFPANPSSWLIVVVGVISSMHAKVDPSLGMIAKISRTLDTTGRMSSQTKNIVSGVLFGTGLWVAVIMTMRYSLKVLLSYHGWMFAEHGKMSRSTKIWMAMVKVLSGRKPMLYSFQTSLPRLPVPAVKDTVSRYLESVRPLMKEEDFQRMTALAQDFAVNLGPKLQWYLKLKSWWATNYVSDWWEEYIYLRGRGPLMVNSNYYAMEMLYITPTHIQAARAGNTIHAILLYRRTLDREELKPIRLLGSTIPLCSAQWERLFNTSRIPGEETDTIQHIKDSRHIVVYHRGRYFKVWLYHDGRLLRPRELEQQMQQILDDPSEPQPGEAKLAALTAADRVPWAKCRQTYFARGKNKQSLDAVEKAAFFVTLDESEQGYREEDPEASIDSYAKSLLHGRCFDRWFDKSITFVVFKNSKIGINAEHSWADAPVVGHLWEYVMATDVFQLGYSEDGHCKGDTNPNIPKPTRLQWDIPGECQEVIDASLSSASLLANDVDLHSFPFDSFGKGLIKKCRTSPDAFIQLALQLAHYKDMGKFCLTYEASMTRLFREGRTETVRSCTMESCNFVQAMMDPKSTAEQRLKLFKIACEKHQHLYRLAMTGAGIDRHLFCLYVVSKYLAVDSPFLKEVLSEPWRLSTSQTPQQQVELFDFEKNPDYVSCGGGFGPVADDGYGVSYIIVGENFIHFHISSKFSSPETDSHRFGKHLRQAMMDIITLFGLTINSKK

[5] = biological target: T5, Carnitine O-palmitoyltransferase 2, mitochondrial (Rattus norvegicus, UniProt P18886); test: as §1
T5 sequence (P18886 whole entry): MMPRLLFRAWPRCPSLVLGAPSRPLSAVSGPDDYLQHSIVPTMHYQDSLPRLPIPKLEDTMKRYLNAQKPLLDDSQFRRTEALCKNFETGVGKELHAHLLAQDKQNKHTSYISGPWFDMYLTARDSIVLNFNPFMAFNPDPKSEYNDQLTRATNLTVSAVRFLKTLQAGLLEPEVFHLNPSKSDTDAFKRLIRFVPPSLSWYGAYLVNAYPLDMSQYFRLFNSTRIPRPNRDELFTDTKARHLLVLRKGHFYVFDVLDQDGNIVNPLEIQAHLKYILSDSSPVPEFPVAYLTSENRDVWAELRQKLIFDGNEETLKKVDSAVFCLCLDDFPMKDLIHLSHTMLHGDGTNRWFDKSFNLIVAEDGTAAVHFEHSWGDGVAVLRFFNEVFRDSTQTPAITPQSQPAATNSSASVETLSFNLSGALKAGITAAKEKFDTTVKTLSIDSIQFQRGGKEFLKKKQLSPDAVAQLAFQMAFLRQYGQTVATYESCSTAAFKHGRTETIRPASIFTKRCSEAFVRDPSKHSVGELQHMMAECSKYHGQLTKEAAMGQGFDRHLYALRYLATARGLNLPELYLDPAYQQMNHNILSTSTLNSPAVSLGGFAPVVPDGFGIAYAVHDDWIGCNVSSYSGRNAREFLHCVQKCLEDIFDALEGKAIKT

SMILES | IC50 [1] | IC50 [2] | IC50 [3] | IC50 [4] | IC50 [5]
O=C1CN(NC(=O)c2cccc(-c3n[nH]c([C@H]4CCCCN4C(=O)COc4ccccc4)n3)c2)C(=O)N1 | > 100 µM | 19.4 µM | 0.273 µM | 0.574 µM | –
COC(=O)c1cccc(-c2csc([C@H]3CCCCN3C(=O)COc3ccccc3)n2)n1 | 7.62 µM | 16.8 µM | – | 0.172 µM | > 100 µM
O=C(COc1ccccc1)N1CCCC[C@@H]1c1nc(-c2ccc(Br)s2)cs1 | 5.66 µM | 47.9 µM | – | 1.36 µM | > 100 µM
O=C(COc1ccccc1)N1CCCC[C@@H]1c1nc(-c2ccc(O)cc2)no1 | 39.2 µM | 75.5 µM | 0.0732 µM | 0.124 µM | –
O=C([C@H]1CCCCN1C(=O)COc1ccccc1)N1CCc2ccc([N+](=O)[O-])cc2C1 | > 100 µM | 1.62 µM | 0.648 µM | – | 2.85 µM
O=C(COc1ccccc1)N1CCCCC1c1ncc(-c2cccc([N+](=O)[O-])c2)s1 (configuration not stated) | > 100 µM | > 100 µM | 0.206 µM | 0.958 µM | –
COc1ccc(Cl)cc1S(=O)(=O)N1COc2c(OC)cc(C(=O)Nc3ccc(C(=O)O)cc3)cc21 | 29 µM | 0.782 µM | 0.53 µM | – | 2.12 µM
O=C(COc1ccccc1)N1CCCC[C@@H]1c1nc(-c2ccc3c(c2)OCO3)cs1 | > 100 µM | 56 µM | – | 0.224 µM | > 100 µM
COc1ccc(C)cc1S(=O)(=O)N1CCCc2ccc(C(=O)Nc3ccc(CC(=O)O)cc3)cc21 | – | – | – | 0.186 µM | –
N#Cc1cccc(-c2csc([C@H]3CCCCN3C(=O)COc3ccccc3)n2)c1 | 8.1 µM | 6.55 µM | – | 0.128 µM | 68.1 µM
O=C(COc1ccccc1)N1CCCC[C@@H]1c1nc(-c2ccc(O)cc2)cs1 | 34.5 µM | > 100 µM | – | 0.227 µM | > 100 µM
CC(=O)Nc1ccc(-c2csc([C@H]3CCCCN3C(=O)COc3ccccc3)n2)cc1 | > 100 µM | 3.68 µM | – | 0.12 µM | > 100 µM
Cc1cc(C)cc(S(=O)(=O)N2CCOc3ccc(C(=O)Nc4ccc(C(=O)O)c(F)c4)cc32)c1 | 2.71 µM | 2.04 µM | 0.253 µM | 0.0704 µM | –
O=C1Cc2cc(-c3csc([C@H]4CCCCN4C(=O)COc4ccccc4)n3)ccc2N1 | > 100 µM | 0.686 µM | – | 0.154 µM | 42.8 µM
O=C(COc1ccccc1)N1CCCC[C@@H]1c1csc(C2COc3ccccc3O2)n1 (some centres not stated) | > 100 µM | > 100 µM | – | 3.62 µM | > 100 µM
O=C(COc1ccccc1)N1CCCCC1c1cc(=O)n(-c2ccc(F)cc2)[nH]1 (configuration not stated) | > 100 µM | > 100 µM | 0.281 µM | 1.58 µM | –

The next lines start with the values.

IC50 [1] | IC50 [2] | IC50 [3] | IC50 [4] | IC50 [5] | SMILES
19.5 µM | 81.3 µM | – | 0.301 µM | 99.1 µM | O=C(O)c1cccc(-c2csc([C@H]3CCCCN3C(=O)COc3ccccc3)n2)n1
> 100 µM | 5.1 µM | – | 2.23 µM | > 100 µM | O=C(O)c1ccc(-c2nc([C@H]3CCCCN3C(=O)COc3ccccc3)cs2)cc1
> 100 µM | 49.8 µM | – | 2 µM | > 100 µM | O=C(COc1ccccc1)N1CCCC[C@@H]1c1csc(-c2ccc(C(F)(F)F)cn2)n1
> 100 µM | > 100 µM | – | 0.219 µM | 79.6 µM | O=C(COc1ccccc1)N1CCCC[C@@H]1c1csc(-c2ccncc2)n1
> 100 µM | > 100 µM | – | 2.9 µM | > 100 µM | O=C(COc1ccccc1)N1CCCC[C@@H]1c1csc(Cc2ccc(Cl)cc2)n1
4.16 µM | > 100 µM | – | 0.0627 µM | 52.2 µM | O=C(COc1ccccc1)N1CCCC[C@@H]1c1csc(-c2cccnc2)n1
59.8 µM | 32.7 µM | – | 0.589 µM | 88.9 µM | O=C(COc1ccccc1)N1CCCC[C@@H]1c1csc(-c2cnccn2)n1
> 100 µM | > 100 µM | – | 0.44 µM | > 100 µM | O=C(COc1ccccc1)N1CCCC[C@@H]1c1csc(-c2ccc(F)cc2)n1
> 100 µM | > 100 µM | – | 1.21 µM | > 100 µM | COC(=O)c1ccc(-c2nc([C@H]3CCCCN3C(=O)COc3ccccc3)cs2)cc1
